Consider 26 compounds from PubChem BioAssay AID256 (DTP/NCI, 2004).

For the test, the system named is CD2F1 mice, L1210 leukemia ip, survival T/C. Kind of test: NCI In Vivo Anticancer Drug Screen. Data for tumor model L1210 Leukemia (intraperitoneal) in CD2F1 (CDF1) mice. The conditions noted are these: higher = longer survival. An outline of the steps: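 Tumor-bearing mice (transplanted tumor) were split into treated and vehicle control groups, and the measured endpoint of each treated group was divided by that of its vehicle controls.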

[1] abbreviates: endpoint: mean survival time, dose: 100.0 mg/kg/injection, schedule: Q04DX002 (ip), vehicle: saline with Tween-80.
The mark [2] stands for this setting: endpoint: mean survival time, dose: 200.0 mg/kg/injection, schedule: Q04DX002 (ip), vehicle: saline with Tween-80.
Setting [3] is: endpoint: mean survival time, dose: 400.0 mg/kg/injection, schedule: Q04DX002 (ip), vehicle: saline with Tween-80.
Where [4] appears, read: endpoint: mean survival time, dose: 100.0 mg/kg/injection, schedule: Q01DX009 (ip), vehicle: saline with Tween-80.
The mark [5] stands for this setting: endpoint: mean survival time, dose: 400.0 mg/kg/injection, schedule: Q01DX009 (ip), vehicle: saline with Tween-80.
[6] abbreviates: endpoint: mean survival time, dose: 100.0 mg/kg/injection, schedule: Q04DX003 (ip), vehicle: saline with Tween-80.
Where [7] appears, read: endpoint: mean survival time, dose: 200.0 mg/kg/injection, schedule: Q01DX009 (ip), vehicle: saline with Tween-80.
Setting [8] is: endpoint: mean survival time, dose: 200.0 mg/kg/injection, schedule: Q04DX003 (ip), vehicle: saline with Tween-80.
The mark [9] stands for this setting: endpoint: mean survival time, dose: 400.0 mg/kg/injection, schedule: Q04DX003 (ip), vehicle: saline with Tween-80.
The mark [10] stands for this setting: endpoint: mean survival time, dose: 100.0 mg/kg/injection, schedule: Q01DX001 (ip), vehicle: saline.
Where [11] appears, read: endpoint: mean survival time, dose: 200.0 mg/kg/injection, schedule: Q01DX001 (ip), vehicle: saline.
Where [12] appears, read: endpoint: mean survival time, dose: 400.0 mg/kg/injection, schedule: Q01DX001 (ip), vehicle: saline.
Setting [13] is: endpoint: mean survival time, dose: 50.0 mg/kg/injection, schedule: Q01DX009 (ip), vehicle: saline with Tween-80.
The mark [14] stands for this setting: endpoint: mean survival time, dose: 100.0 mg/kg/injection, schedule: Q04DX003 (ip), vehicle: saline.
Where [15] appears, read: endpoint: mean survival time, dose: 200.0 mg/kg/injection, schedule: Q04DX003 (ip), vehicle: saline.
[16] abbreviates: endpoint: mean survival time, dose: 12.5 mg/kg/injection, schedule: Q01DX009 (ip), vehicle: saline with Tween-80.
Where [17] appears, read: endpoint: mean survival time, dose: 25.0 mg/kg/injection, schedule: Q01DX009 (ip), vehicle: saline with Tween-80.

Structures are written as SMILES. Values joined by “and” are separate entries in the source; they are usually repeats but may differ in a detail not shown here. Equal values may be shown once. Inconclusive results and toxic doses are left out.

As to `Nc1ccnc(SCc2ccc3ccccc3c2)n1`, the T/C under setting [1] was 93 % of control, the T/C under setting [2] is 101 % of control and the T/C under setting [3] is 101 % of control.
Regarding `CCOC(=O)CN1C(=O)NC(c2ccccc2)(c2ccccc2)C1=O`, the T/C is, setting by setting: under setting [4], 94 % of control; (endpoint: mean survival time, dose: 100.0 mg/kg/injection, schedule: Q04DX003 (ip), vehicle: acetone) 97 % of control; (endpoint: mean survival time, dose: 200.0 mg/kg/injection, schedule: Q04DX003 (ip), vehicle: acetone) 101 % of control; under setting [5], 94 % of control; (endpoint: mean survival time, dose: 400.0 mg/kg/injection, schedule: Q04DX003 (ip), vehicle: acetone) 103 % of control.
Consider `CCN(CCP(c1ccccc1)c1ccccc1)CCP(c1ccccc1)c1ccccc1`, for which the T/C (endpoint: mean survival time, dose: 150.0 mg/kg/injection, schedule: Q01DX001 (ip), vehicle: other) is 110 % of control and the T/C (endpoint: mean survival time, dose: 300.0 mg/kg/injection, schedule: Q01DX001 (ip), vehicle: other) was 115 % of control.
In the case of `CCCCNC(=O)Nc1ccc(C(=O)OCCCC)cc1`, the T/C reads like this: under setting [4], 87 % of control; under setting [6], 101 % of control; under setting [7], 92 % of control; under setting [8], 101 % of control; under setting [5], 92 % of control; under setting [9], 100 % of control.
Turning to `CCCCCCCCCCCCC(=O)N1CCOCC1`, the T/C by setting is: under setting [4], 105 % of control; under setting [7], 94 % of control; under setting [5], 103 % of control.
As to `CN(C)B(B(N(C)C)N(C)C)N(C)C`, the T/C is 105 % of control under setting [10], 97 % of control under setting [11] and 101 % of control under setting [12].
Turning to `O=C(COc1ccc(Cl)cc1)C1CSc2ccc(Cl)cc21` (stereo not drawn), the T/C was 88 % of control under setting [4]; 95 % of control under setting [6]; 91 % of control under setting [7]; 92 % of control under setting [8]; 89 % of control under setting [5]; 88 % of control under setting [9].
For the compound `COc1ccccc1NC(=O)Oc1cccc(C)c1`, the T/C is 91 % of control under setting [1], 88 % of control under setting [2] and 91 % of control under setting [3].
As to `O=C(CCC(=O)c1cccc([N+](=O)[O-])c1)NNc1ccc([N+](=O)[O-])cc1[N+](=O)[O-]`, the T/C was 98 % of control under setting [6], 98 % of control under setting [8] and 102 % of control under setting [9].
Take `CCOC(=O)c1nc2cc(C)c(C)cc2[nH]c1=O`: the T/C under setting [4] is 95 % of control, the T/C under setting [7] was 89 % of control and the T/C under setting [5] is 100 % of control.
On to `N#CC/C(=N\Nc1ccc([N+](=O)[O-])cc1[N+](=O)[O-])c1ccccc1`, for which the T/C runs as follows: (endpoint: mean survival time, dose: 100.0 mg/kg/injection, schedule: Q04DX003 (ip), vehicle: saline sonified) 100 % of control; (endpoint: mean survival time, dose: 200.0 mg/kg/injection, schedule: Q04DX003 (ip), vehicle: saline sonified) 100 % of control; (endpoint: mean survival time, dose: 400.0 mg/kg/injection, schedule: Q04DX003 (ip), vehicle: saline sonified) 97 % of control.
On to `Nc1ccc2cc(Cl)ccc2c1`, for which the T/C is, setting by setting: under setting [13], 103 % of control; under setting [4], 105 % of control; under setting [6], 95 % of control; under setting [8], 95 % of control.
Regarding `Cc1cnc([Se])[nH]c1=O`, the T/C was 87 % of control (endpoint: mean survival time, dose: 25.0 mg/kg/injection, schedule: Q01DX005 (ip), vehicle: water) and 90 % of control (endpoint: mean survival time, dose: 50.0 mg/kg/injection, schedule: Q01DX005 (ip), vehicle: water).
With `CCC1c2ccc3cc(O)ccc3c2CCC1(C)C(=O)OC` (stereo not drawn), the T/C was 96 % of control (endpoint: mean survival time, dose: 50.0 mg/kg/injection, schedule: Q01DX001 (ip), vehicle: Klucel (hydroxypropylcellulose) (HPC)); 96 % of control (endpoint: mean survival time, dose: 100.0 mg/kg/injection, schedule: Q01DX001 (ip), vehicle: Klucel (hydroxypropylcellulose) (HPC)); 104 % of control (endpoint: mean survival time, dose: 200.0 mg/kg/injection, schedule: Q01DX001 (ip), vehicle: Klucel (hydroxypropylcellulose) (HPC)).
As for `COc1c(C)c2c(c(O)c1CCNc1ccc(S(N)(=O)=O)cc1)C(=O)OC2`, the T/C reads like this: under setting [1], 100 % of control; under setting [2], 96 % of control; under setting [3], 100 % of control.
As for `Nc1ccn(C2OC(CO)C(O)C2Br)c(=O)n1` (stereo not drawn), the T/C reads like this: (endpoint: median survival time, dose: 12.5 mg/kg/injection, schedule: Q01DX005 (ip), vehicle: saline) 108 % of control; (endpoint: median survival time, dose: 25.0 mg/kg/injection, schedule: Q01DX005 (ip), vehicle: saline) 107 % of control; (endpoint: median survival time, dose: 50.0 mg/kg/injection, schedule: Q01DX005 (ip), vehicle: Klucel (hydroxypropylcellulose) (HPC)) 118 % of control; (endpoint: median survival time, dose: 50.0 mg/kg/injection, schedule: Q01DX005 (ip), vehicle: saline) 119 % of control; (endpoint: median survival time, dose: 200.0 mg/kg/injection, schedule: Q01DX005 (ip), vehicle: saline) 150 % of control.
For `NC(C(=O)[O-])C(=O)[O-].NC1CCCCC1N.[Pt+4]`, the T/C runs as follows: (endpoint: median survival time, dose: 1.0 mg/kg/injection, schedule: Q04DX003 (ip), vehicle: water) 109 % of control; (endpoint: median survival time, dose: 2.0 mg/kg/injection, schedule: Q04DX003 (ip), vehicle: water) 124 % of control.
For the compound `C=C1C(=O)OC(CCCCCCCCCCCCC)C1C(=O)O` (stereo not drawn), the T/C (endpoint: mean survival time, dose: 10.0 mg/kg/injection, schedule: Q04DX002 (ip), vehicle: saline with Tween-80) was 108 % of control and the T/C (endpoint: mean survival time, dose: 20.0 mg/kg/injection, schedule: Q04DX002 (ip), vehicle: saline with Tween-80) is 87 % of control.
Regarding `N=C(N)c1ccc(N)cc1`, the T/C is 103 % of control under setting [14] and 101 % of control under setting [15].
`CN(C)P(=O)(Oc1ccccc1)N(C)C`: the T/C is, setting by setting: under setting [16], 98 % of control and 100 % of control; under setting [17], 95 % of control and 101 % of control; under setting [13], 89 % of control and 96 % of control; under setting [4], 94 % of control and 101 % of control; under setting [7], 95 % of control and 96 % of control; under setting [5], 93 % of control and 96 % of control.
Regarding `CS(=O)(=O)OCCN(CCOS(C)(=O)=O)c1ccc(C=O)cc1`, the T/C by setting is: (endpoint: mean survival time, dose: 3.12 mg/kg/injection, schedule: Q01DX009 (ip), vehicle: saline with Tween-80) 113 % of control and 115 % of control; (endpoint: mean survival time, dose: 6.25 mg/kg/injection, schedule: Q01DX009 (ip), vehicle: saline with Tween-80) 115 % of control and 112 % of control; under setting [16], 117 % of control; (endpoint: mean survival time, dose: 12.5 mg/kg/injection, schedule: Q01DX009 (ip), vehicle: saline) 96 % of control; under setting [17], 112 % of control; (endpoint: mean survival time, dose: 25.0 mg/kg/injection, schedule: Q01DX009 (ip), vehicle: saline) 102 % of control. Moreover, under setting [13], the T/C was 95 % of control.
Regarding `CC1(C)C2CC=C(CCOC(=S)S)C1C2.[Ni]` (stereo not drawn), the T/C runs as follows: under setting [17], 96 % of control; under setting [13], 90 % of control; under setting [4], 96 % of control; under setting [6], 91 % of control; under setting [8], 93 % of control.
Regarding `O=C(O)C1CC(Br)C(Br)CC1C(=O)O` (stereo not drawn), the T/C is 95 % of control under setting [4], 100 % of control under setting [7] and 91 % of control under setting [5].
On to `CCOC(=O)N/N=C/c1ccccc1`, for which the T/C is, setting by setting: (endpoint: mean survival time, dose: 100.0 mg/kg/injection, schedule: Q01DX001 (ip), vehicle: saline with Tween-80) 103 % of control; (endpoint: mean survival time, dose: 200.0 mg/kg/injection, schedule: Q01DX001 (ip), vehicle: saline with Tween-80) 108 % of control; (endpoint: mean survival time, dose: 400.0 mg/kg/injection, schedule: Q01DX001 (ip), vehicle: saline with Tween-80) 110 % of control.
Consider `COC1C(CO)OC(O)C(N)C1OC` (stereo not drawn), for which the T/C is 103 % of control under setting [10], 103 % of control under setting [11] and 97 % of control under setting [12].
For `CN(C)P1(N)=NP(N)(N(C)C)=NP(N)(N(C)C)=N1` (stereo not drawn), the T/C was 100 % of control under setting [14]; 94 % of control under setting [15]; 96 % of control (endpoint: mean survival time, dose: 400.0 mg/kg/injection, schedule: Q04DX003 (ip), vehicle: saline).
